Test results: patent US20260265248A1, “NOVEL PD-L1 INHIBITORS” (AFFIRMA BIOTECH S. L., priority 2023, published 2026)

The compounds below were run against T1, PD-1/PD-L1 (Homo sapiens, UniProt Q9NZQ7) (assay: PD1-PDL1 HTRF assay). Conditions: PD-1/PD-L1 homogenous time-resolved fluorescence (HTRF) binding assay; Tag1-PDL1 5 nM, Tag2-PD1 50 nM.
T1 construct: purchased CisBio
Summary of the method: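 Compound (8 concentrations) was preincubated 15 min at room temperature with Tag1-PD-L1 and Tag2-PD-1, added as 5 nM and 50 nM solutions. Eu-labelled anti-Tag1 and XL665-labelled anti-Tag2 were then added for 1 h, and the 665/620 nm ratio (×10^4; excitation 320 nm) was fitted to the Hill equation for IC50.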

T1 sequence (Q9NZQ7 19-238 limits assumed): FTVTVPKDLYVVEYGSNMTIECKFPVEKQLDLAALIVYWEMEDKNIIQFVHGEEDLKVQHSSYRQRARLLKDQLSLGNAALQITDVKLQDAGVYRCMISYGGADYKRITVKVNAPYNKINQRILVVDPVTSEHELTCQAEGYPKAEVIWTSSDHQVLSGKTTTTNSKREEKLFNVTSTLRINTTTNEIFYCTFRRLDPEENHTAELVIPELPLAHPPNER

Row | IC50 [nM] | SMILES
1 | ≤ 10 | Cc1c(-c2ccc(CNC[C@@H]3CCC(=O)N3)cc2)cccc1-c1cccc(-c2ccn3nc(CNC[C@@H]4CCC(=O)N4)nc3c2)c1C [Example 99, (S)-5-((((21,2″-dimethyl-3″-(2-(((((S)-5-oxopyrrolidin-2-yl)methyl)amino)methyl)-[1,2,4]triazolo[1,5-a]pyridin-7-yl)-[1,1′:3′,1″-terphenyl]-4-yl)methyl)amino)methyl)pyrrolidin-2-one]
2 | ≤ 10 | Cc1c(NC(=O)c2ccc(CNCCO)cn2)cccc1-c1cccc(-c2ccn3nc(CNCCO)nc3c2)c1C [Example 100, 5-(((2-hydroxyethyl)amino)methyl)-N-(3′-(2-(((2-hydroxyethyl)amino)methyl)-[1,2,4]triazolo[1,5-a]pyridin-7-yl)-2,2′-dimethyl-[1,1′-biphenyl]-3-yl)picolinamide]
3 | ≤ 10 | Cc1c(NC(=O)c2ccc(CNCCO)cc2)cccc1-c1cccc(-c2ccn3nc(CNCCO)nc3c2)c1C [Example 101, 4-(((2-hydroxyethyl)amino)methyl)-N-(3′-(2-(((2-hydroxyethyl)amino)methyl)-[1,2,4]triazolo[1,5-a]pyridin-7-yl)-2,2′-dimethyl-[1,1′-biphenyl]-3-yl)benzamide]
4 | 10 to 100 | Cc1c(-c2ccc(CNCCO)cc2)cccc1-c1cccc(-c2ccn3nc(CNC[C@@H]4CCC(=O)N4)nc3c2)c1C [Example 102, (S)-5-((((7-(4″-(((2-hydroxyethyl)amino)methyl)-2,2′-dimethyl-[1,1′:3′,1″-terphenyl]-3-yl)-[1,2,4]triazolo[1,5-a]pyridin-2-yl)methyl)amino)methyl) pyrrolidin-2-one]
5 | 100 to 1000 | Cc1c(NC(=O)c2ccc(CNCCO)cc2)cccc1-c1cccc(-c2ccn3nc(CNC[C@@H]4CCC(=O)N4)nc3c2)c1C [Example 103, (S)—N-(2,2′-dimethyl-3′-(2-((((5-oxopyrrolidin-2-yl)methyl)amino)methyl)-[1,2,4]triazolo[1,5-a]pyridin-7-yl)-[1,1′-biphenyl]-3-yl)-4-(((2-hydroxyethyl)amino)methyl)benzamide]
6 | ≤ 10 | OCCNCc1ccc(-c2cccc(-c3cccc(-c4ccn5nc(CNCCO)nc5c4)c3Cl)c2Cl)cc1 [Example 104, 2-(((2′,2″-dichloro-3″-(2-(((2-hydroxyethyl)amino)methyl)-[1,2,4]triazolo[1,5-a]pyridin-7-yl)-[1,1′:3′,1″-terphenyl]-4-yl)methyl)amino)ethan-1-ol]
7 | ≤ 10 | O=C1CC[C@@H](CNCc2ccc(-c3cccc(-c4cccc(-c5ccn6nc(CNC[C@@H]7CCC(=O)N7)nc6c5)c4Cl)c3Cl)cc2)N1 [Example 105, (S)-5-((((21,2″-dichloro-3″-(2-(((((S)-5-oxopyrrolidin-2-yl)methyl)amino)methyl)-[1,2,4]triazolo[1,5-α]pyridin-7-yl)-[1,1′:3′,1″-terphenyl]-4-yl)methyl)amino)methyl)pyrrolidin-2-one]
8 | ≤ 10 | CC(C)(CO)NCc1ccc(-c2cccc(-c3cccc(-c4ccn5nc(CNC(C)(C)CO)nc5c4)c3Cl)c2Cl)cc1 [Example 106, 2-(((21,2″-dichloro-3″-(2-(((1-hydroxy-2-methylpropan-2-yl)amino)methyl)-[1,2,4]triazolo[1,5-a]pyridin-7-yl)-[1,1′:3′,1″-terphenyl]-4-yl)methyl)amino)-2-methylpropan-1-ol]
9 | ≤ 10 | CC(=O)NCCNCc1ccc(-c2cccc(-c3cccc(-c4ccn5nc(CNCCNC(C)=O)nc5c4)c3Cl)c2Cl)cc1 [Example 109, N-(2-(((7-(4″-(((2-acetamidoethyl)amino)methyl)-2,2′-dichloro-[1,1′:3′,1″-terphenyl]-3-yl)-[1,2,4]triazolo[1,5-a]pyridin-2-yl)methyl)amino)ethyl)acetamide]
10 | ≤ 10 | OCCCNCc1ccc(-c2cccc(-c3cccc(-c4ccn5nc(CNCCCO)nc5c4)c3Cl)c2Cl)cc1 [Example 111, 3-(((2′,2″-dichloro-3″-(2-(((3-hydroxypropyl)amino)methyl)-[1,2,4]triazolo[1,5-a]pyridin-7-yl)-[1,1′:3′,1″-terphenyl]-4-yl)methyl)amino)propan-1-ol]
11 | 10 to 100 | CC(C)(CO)NCc1ccc(-c2cccc(-c3cccc(-c4ccn5nc(CNCCO)nc5c4)c3Cl)c2Cl)cc1 [Example 112, 2-(((2′,2″-dichloro-3″-(2-(((2-hydroxyethyl)amino)methyl)-[1,2,4]triazolo[1,5-a]pyridin-7-yl)-[1,1′:3′,1″-terphenyl]-4-yl)methyl)amino)-2-methylpropan-1-ol]
12 | ≤ 10 | OCCNCc1nc2cc(-c3cccc(-c4cccc(-c5ccc(CN6CCC[C@H]6CO)cc5)c4Cl)c3Cl)ccn2n1 [Example 113, (S)-2-(((7-(2,2′-dichloro-4″-((2-(hydroxymethyl)pyrrolidin-1-yl)methyl)-[1,11:31,1″-terphenyl]-3-yl)-[1,2,4]triazolo[1,5-a]pyridin-2-yl)methyl)amino)ethan-1-ol]
13 | ≤ 10 | OCCNCc1nc2cc(-c3cccc(-c4cccc(-c5ccc(CN6CCC[C@@H]6CO)cc5)c4Cl)c3Cl)ccn2n1 [Example 114, (R)-2-(((7-(2,2′-dichloro-4″-((2-(hydroxymethyl)pyrrolidin-1-yl)methyl)-[1,11:3′,1″-terphenyl]-3-yl)-[1,2,4]triazolo [1,5-a]pyridin-2-yl)methyl)amino)ethan-1-ol]
14 | ≤ 10 | OCCCNCc1ccc(-c2cccc(-c3cccc(-c4ccn5nc(CNCCO)nc5c4)c3Cl)c2Cl)cc1 [Example 115, 3-(((21,2″-dichloro-3″-(2-(((2-hydroxyethyl)amino)methyl)-[1,2,4]triazolo[1,5-a]pyridin-7-yl)-[1,11:31,1″-terphenyl]-4-yl)methyl)amino)propan-1-ol]
15 | ≤ 10 | CC(C)(CO)NCc1nc2cc(-c3cccc(-c4cccc(-c5ccc(CNCCO)cc5)c4Cl)c3Cl)ccn2n1 [Example 116, 2-(((7-(2,2′-dichloro-4″-(((2-hydroxyethyl)amino)methyl)-[1,1′:31,1″-terphenyl]-3-yl)-[1,2,4]triazolo[1,5-a]pyridin-2-yl)methyl)amino)-2-methylpropan-1-ol]
